From publication PMC6271944 (Molecules, 2014)

How the values were obtained:
[1] = molecular target: T1, CYP1A2 (Homo sapiens, UniProt P05177); experiment: CYP inhibition in human liver microsomes, substrate cocktail, LC-MS/MS (phenacetin); type: in vitro ADME; conditions: metabolite acetaminophen, read-out: IC50 for HLM, CYP1A2
T1 construct: Pooled human liver microsomes (HLM, LOT 32556) were purchased from BD Gentest Corporation; tissue BD Gentest Corporation LOT 32556; host or cells: pooled human liver microsomes
T1 sequence (P05177 1-516): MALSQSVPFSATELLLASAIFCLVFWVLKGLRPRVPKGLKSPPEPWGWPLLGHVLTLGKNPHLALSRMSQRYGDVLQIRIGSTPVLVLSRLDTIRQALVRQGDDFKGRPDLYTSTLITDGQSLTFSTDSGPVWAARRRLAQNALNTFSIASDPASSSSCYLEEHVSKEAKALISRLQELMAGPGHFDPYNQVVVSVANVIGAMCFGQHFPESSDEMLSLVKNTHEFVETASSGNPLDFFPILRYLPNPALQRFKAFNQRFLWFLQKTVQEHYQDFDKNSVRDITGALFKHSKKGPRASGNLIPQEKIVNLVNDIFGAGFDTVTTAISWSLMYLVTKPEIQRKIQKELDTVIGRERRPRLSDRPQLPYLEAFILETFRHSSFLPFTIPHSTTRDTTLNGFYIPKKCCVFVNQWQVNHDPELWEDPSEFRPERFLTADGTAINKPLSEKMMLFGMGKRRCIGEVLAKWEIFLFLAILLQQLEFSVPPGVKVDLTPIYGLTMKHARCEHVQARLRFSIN
Source text: (§1) Positive controls (furafyline for CYP1A2, montelukast for CYP2C8, sulfaphenazole for CYP2C9, S-(+)-N-3-benzylnirvanol for CYP2C19, quinidine for CYP2D6, ketoconazole for CYP3A4) and specific substrates (phenacetin for CYP1A2, paclitaxel for CYP2C8, diclofenac for CYP2C9, S-mephenytoin for CYP2C19, dextromethorphan for CYP2D6, midazolam for CYP3A4) are consistent with our previous papers. The substrates were used at concentrations approximately equal to their respective Michaelis-Menten constant (Km) values: 10 μM phenacetin, 5 μM paclitaxel, 5 μM diclofenac, 200 μM S-mephenytoin, 5 μM dextromethorphan, and 2 μM midazolam. NADP^+ was added after a 15 min preincubation of all other components at 37 °C. After a given incubation time (30 min), the reactions were terminated by addition of 60 μL ice-cold acetonitrile containing gemfibrozil and buspirone as internal standards. Incubation samples were stored at −80 °C until used in liquid chromatography-tandem mass spectrometry (LC-MS/MS) analysis. The mixture was centrifuged at 3,500 rpm for 5 min. The supernatant was mixed with equal volume of a 1:1 mixture of methanol and water and 20 μL of the final mixture was used for LC-MS/ MS analysis. […]
(§2) The CYP inhibition potential were evaluated by measuring the formation of one or more metabolites of the test substrates. […]

[2] = molecular target: T2, CYP2C8 (Homo sapiens, UniProt P10632); experiment: CYP inhibition in human liver microsomes, substrate cocktail, LC-MS/MS (paclitaxel); type: in vitro ADME; conditions: metabolite 6α-hydroxypaclitaxel, read-out: IC50 for HLM, CYP2C8
T2 construct: Pooled human liver microsomes (HLM, LOT 32556) were purchased from BD Gentest Corporation; tissue BD Gentest Corporation LOT 32556; host or cells: pooled human liver microsomes
T2 sequence (P10632 1-490): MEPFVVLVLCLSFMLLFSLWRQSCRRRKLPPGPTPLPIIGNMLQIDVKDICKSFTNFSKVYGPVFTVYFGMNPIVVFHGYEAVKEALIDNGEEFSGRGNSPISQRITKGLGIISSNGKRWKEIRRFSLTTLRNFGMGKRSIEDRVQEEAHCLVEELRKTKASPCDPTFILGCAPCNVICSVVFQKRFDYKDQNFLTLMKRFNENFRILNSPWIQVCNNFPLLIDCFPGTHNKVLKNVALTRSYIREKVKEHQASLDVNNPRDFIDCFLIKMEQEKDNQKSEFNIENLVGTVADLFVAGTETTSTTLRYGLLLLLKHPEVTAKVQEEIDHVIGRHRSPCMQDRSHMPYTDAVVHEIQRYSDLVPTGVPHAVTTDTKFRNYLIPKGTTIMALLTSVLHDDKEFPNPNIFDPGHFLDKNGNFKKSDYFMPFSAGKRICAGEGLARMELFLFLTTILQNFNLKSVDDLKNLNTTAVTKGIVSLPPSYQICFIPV
Source text: as §1, §2

[3] = molecular target: T3, P-gp (Homo sapiens, UniProt P08183); experiment: P-gp inhibition, calcein-AM fluorometry assay in WM-266-4 cells; type: cell-based; conditions: probe calcein-AM (1 μM), all six concentrations 4.1~1,000 μM, response relative to verapamil at 100 μM
T3 construct: host or cells: WM-266-4 human melanoma cells
Protocol: One vial of WM-266-4 cells was thawed and cultured in a 15 cm culture dish overnight. Cells were split the next day and transferred onto a clear bottom 96-well plate with 5.0 × 10^4 cells per well. […] Verapamil was used as a positive control at a concentration of 100 μM and 1% DMSO was used as a negative control. After 30 min of incubation time, calcein-AM diluted with 50 μL culture media without serum was added to a concentration of 1 μM and the sample was incubated for an additional 30 min. The plates were placed in the Flexstation II (Molecular Devices) and fluorescence was measured at excitation and emission wavelengths of 494 and 517 nm, respectively.
The P-gp inhibitor verapamil was used as positive control at a concentration of 100 μM. The experiment was considered valid if an increase in fluorescence greater than 5-fold was observed. For P-gp inhibition, a compound with a response less than 25% of verapamil at 100 μM is normally reported as “negative” at the tested concentration. The percent response value was used to determine and report the P-gp interaction at the tested concentration. A response equal to or greater than 25% of verapamil at 100 μM was considered to be “positive” at the tested concentration.

[4] = test system: WM-266-4 cells; experiment: Cytotoxicity on WM-266-4 cells; type: cell-based, human; conditions: even at highest concentration
[5] = test system: rat CYP1A2; conditions: cited from earlier work

T3 sequence (P08183 whole entry): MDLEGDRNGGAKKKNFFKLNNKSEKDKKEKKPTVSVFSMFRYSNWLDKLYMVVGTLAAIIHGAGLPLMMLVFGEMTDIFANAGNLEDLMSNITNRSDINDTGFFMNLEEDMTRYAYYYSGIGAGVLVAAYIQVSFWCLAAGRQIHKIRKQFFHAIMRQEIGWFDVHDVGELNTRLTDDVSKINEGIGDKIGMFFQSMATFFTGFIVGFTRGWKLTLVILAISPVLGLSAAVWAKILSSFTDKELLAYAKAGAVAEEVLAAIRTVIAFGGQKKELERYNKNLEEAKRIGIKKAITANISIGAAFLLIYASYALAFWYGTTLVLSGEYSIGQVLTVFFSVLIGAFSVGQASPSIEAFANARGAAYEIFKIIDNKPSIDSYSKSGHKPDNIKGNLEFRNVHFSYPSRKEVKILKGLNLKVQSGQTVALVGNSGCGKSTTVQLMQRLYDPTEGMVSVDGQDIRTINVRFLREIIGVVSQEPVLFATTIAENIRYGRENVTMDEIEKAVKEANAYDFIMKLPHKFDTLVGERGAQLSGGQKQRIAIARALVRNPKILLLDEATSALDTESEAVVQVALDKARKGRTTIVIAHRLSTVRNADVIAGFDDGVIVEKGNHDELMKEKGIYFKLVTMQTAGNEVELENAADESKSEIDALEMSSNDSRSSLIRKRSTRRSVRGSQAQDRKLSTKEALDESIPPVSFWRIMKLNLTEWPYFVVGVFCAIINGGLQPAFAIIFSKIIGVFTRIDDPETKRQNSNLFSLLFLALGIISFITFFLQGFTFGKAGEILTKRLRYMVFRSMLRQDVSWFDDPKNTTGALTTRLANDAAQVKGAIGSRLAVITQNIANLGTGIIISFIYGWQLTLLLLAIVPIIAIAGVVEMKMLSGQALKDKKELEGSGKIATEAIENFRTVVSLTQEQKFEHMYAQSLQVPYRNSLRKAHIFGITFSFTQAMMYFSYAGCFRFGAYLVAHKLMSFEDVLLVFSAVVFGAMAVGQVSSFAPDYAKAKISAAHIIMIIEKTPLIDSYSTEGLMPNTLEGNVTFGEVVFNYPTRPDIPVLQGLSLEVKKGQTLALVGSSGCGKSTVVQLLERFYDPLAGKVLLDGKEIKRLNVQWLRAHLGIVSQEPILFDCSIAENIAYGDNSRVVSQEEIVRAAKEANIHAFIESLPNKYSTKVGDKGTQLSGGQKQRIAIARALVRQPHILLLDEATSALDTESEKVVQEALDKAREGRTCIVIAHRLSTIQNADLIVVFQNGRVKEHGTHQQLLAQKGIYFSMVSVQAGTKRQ

O=C(O)[C@H]1O[C@@H](Oc2cc3oc(-c4ccc(O)cc4)cc(=O)c3c(O)c2O)[C@H](O)[C@@H](O)[C@@H]1O [scutellarin, Scutellarin]
IC50 [1]: > 100 µM | IC50 [2]: > 100 µM | inhibition at 60 min [3]: < 25% | cytotoxicity on WM-266-4 cells [4]: does not show cytotoxicity | IC50 ([5]; in vitro experiments): 108.2 ± 0.657 µM | Ki ([5]; weak mixed-type inhibition, read-out: Ki against the activity of CYP1A2): 95.2 µM
